Experimental data taken from ChEMBL document CHEMBL1201862, “PubChem BioAssay data set” (2004).
Activity calls are given as the source filed them. Rule as the data show it, for most assays here: actives have a measured EC50 and inactives only a lower limit.

Legend:
Phospholipase A2 = Phospholipase A2 (Homo sapiens, UniProt P04054); assay type: functional;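 also: confirmatory dose-response counterscreen on phospholipase A2, testing hits that came from an ultra-high-throughput screen for ATG4B inhibitors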
Sequence of Phospholipase A2 (P04054 whole entry): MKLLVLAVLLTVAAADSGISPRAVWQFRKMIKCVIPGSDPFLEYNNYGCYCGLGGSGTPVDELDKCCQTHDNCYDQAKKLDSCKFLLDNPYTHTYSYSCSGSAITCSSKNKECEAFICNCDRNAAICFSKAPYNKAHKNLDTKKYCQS

HEK293 [1] = test: cells; conditions: Homo sapiens
HEK293 [2] = test: cells; conditions: Homo sapiens; remark: listed apart in the source
Cysteine protease ATG4B = target: T1, Cysteine protease ATG4B (Homo sapiens, UniProt Q9Y4P1); assay type: functional;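 also: Fluorescence-based dose-response confirmation assay measuring inhibition of ATG4B activity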
T1 sequence (Q9Y4P1 whole entry): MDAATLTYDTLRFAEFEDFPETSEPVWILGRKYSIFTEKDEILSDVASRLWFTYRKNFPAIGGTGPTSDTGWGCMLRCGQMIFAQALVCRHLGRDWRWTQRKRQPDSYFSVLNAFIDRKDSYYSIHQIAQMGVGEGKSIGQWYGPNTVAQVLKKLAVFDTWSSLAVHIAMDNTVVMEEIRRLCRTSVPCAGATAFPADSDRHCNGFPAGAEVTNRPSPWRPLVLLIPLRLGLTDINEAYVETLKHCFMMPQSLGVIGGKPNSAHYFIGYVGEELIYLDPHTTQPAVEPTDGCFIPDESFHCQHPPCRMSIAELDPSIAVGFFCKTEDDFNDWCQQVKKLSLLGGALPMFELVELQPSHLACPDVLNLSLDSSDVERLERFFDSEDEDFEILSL

[3] = alpha-synuclein stem-loop luciferase translation blockers – H4 neuroglioma cells, luminescence, confirmation (AID 1988); assay type: functional, cell-based
[4] = NIH3T3 cell viability loss – ATP luminescence, mouse fibroblasts, counter-screen, dose response (AID 2010); assay type: functional, cell-based;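 also: cells exposed to compound for about 90 hours before reading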
[5] = luciferase reporter signal suppression in cells – H4 neuroglioma cells, luminescence, dose response (AID 1990); assay type: functional, cell-based
[6] = HEK-293T cell viability reduction – luminescence, B-cell screen hits, cytotoxicity control for BCR NF-kB inhibitor project, dose response (AID 489021); assay type: functional, cell-based;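 also: HEK-293T cells carrying an NF-kB luciferase reporter; cells exposed to compound for about 14 hours before viability readout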
[7] = target: T2, Heat shock factor protein 1 (Mus musculus, UniProt P38532); test: decrease of HSF1-responsive luciferase luminescence – cell-based, NIH3T3, dose retest, confirmation (AID 2382); assay type: functional;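 also: NIH3T3 fibroblasts with HSF1-driven luciferase reporter stressed by proteasome inhibitor MG132; luminescence from HSF1-driven luciferase expression after 8 hours of MG132 stress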
T2 sequence (P38532 whole entry): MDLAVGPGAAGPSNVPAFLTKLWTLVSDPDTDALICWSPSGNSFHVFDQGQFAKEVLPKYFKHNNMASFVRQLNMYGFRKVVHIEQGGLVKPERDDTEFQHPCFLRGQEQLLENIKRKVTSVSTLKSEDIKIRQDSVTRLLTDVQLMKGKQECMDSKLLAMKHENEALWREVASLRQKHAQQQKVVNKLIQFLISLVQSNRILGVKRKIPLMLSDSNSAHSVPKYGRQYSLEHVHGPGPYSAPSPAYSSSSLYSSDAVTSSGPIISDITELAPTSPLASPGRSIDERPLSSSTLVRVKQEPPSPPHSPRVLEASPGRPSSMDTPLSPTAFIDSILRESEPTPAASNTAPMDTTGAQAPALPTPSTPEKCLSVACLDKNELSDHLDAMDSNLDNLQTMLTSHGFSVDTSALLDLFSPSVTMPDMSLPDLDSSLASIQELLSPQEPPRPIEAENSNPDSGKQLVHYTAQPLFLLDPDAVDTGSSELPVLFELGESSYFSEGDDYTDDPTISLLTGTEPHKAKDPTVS

[8] = Luminescence Cell-Based Dose Response HTS to Identify Inhibitors of 5'UTR Stem-Loop Driven Prion Protein mRNA Translation in H4 Neuroglioblastoma Cells. [Related pubchem assays: 1827 (Project Summary), 1813 (Primary HTS)]; assay type: functional
Protein RecA = target: T3, Protein RecA (Mycobacterium tuberculosis, UniProt P9WHJ3); test: Fluorescence Cell-Free Homogeneous Dose Retest to Identify Inhibitors of RecA-Intein Splicing Activity. [Related pubchem assays (depositor defined):AID2097, AID2223, AID489010, AID492950]; assay type: functional
T3 sequence (P9WHJ3 whole entry): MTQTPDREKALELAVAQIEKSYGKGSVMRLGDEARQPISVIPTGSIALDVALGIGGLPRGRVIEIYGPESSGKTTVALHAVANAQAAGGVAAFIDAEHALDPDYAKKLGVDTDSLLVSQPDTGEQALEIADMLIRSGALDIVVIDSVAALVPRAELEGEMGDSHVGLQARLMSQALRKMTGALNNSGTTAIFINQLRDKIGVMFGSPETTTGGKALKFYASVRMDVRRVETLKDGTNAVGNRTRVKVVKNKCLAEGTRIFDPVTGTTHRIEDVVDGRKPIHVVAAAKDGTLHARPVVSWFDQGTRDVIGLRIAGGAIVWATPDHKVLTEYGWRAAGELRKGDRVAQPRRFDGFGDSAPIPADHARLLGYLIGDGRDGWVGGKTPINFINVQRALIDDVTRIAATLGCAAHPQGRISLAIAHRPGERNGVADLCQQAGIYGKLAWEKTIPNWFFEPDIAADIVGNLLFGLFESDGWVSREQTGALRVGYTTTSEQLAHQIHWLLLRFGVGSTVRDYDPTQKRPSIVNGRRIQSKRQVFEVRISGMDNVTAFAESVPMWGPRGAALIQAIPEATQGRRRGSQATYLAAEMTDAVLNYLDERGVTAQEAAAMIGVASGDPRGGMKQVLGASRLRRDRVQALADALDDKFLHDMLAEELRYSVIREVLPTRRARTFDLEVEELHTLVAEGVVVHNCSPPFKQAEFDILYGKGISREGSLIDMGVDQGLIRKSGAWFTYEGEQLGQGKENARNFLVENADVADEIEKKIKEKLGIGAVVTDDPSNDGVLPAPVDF

[9] = target: T4, Replicative DNA helicase DnaB (Mycobacterium tuberculosis, UniProt P9WMR3); test: DnaB intein splicing inhibitors, dose response, biochemical, cell-free fluorescence (AID 449749); assay type: functional
T4 sequence (P9WMR3 whole entry): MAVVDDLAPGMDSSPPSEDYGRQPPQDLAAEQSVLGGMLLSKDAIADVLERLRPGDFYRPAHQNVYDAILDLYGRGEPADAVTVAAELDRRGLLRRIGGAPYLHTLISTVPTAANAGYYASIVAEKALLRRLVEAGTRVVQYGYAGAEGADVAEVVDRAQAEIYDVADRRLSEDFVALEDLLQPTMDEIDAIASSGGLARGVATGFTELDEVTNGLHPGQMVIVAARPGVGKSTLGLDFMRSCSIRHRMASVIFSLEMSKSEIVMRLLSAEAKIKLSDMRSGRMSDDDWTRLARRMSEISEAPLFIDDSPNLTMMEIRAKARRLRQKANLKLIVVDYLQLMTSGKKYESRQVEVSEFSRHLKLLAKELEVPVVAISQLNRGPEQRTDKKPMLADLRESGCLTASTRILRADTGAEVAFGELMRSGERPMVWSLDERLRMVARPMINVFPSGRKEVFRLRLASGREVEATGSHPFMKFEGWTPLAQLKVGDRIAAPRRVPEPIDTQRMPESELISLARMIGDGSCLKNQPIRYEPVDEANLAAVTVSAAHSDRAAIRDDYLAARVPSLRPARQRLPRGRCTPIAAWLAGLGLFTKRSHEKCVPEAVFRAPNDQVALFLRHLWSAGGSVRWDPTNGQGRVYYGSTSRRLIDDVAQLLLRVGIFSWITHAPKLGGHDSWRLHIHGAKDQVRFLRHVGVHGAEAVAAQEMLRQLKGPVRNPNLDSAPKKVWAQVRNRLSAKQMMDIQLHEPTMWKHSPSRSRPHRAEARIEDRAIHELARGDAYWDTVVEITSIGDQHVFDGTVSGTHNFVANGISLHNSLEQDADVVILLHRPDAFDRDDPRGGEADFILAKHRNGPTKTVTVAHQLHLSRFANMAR

[10] = Intein inhibitors as potential Tuberculosis drugs, a cytotoxicity screen. [Related pubchem assays (depositor defined):AID2221, AID2223, AID434968, AID435010, AID449749, AID449750, AID489010]; assay type: functional
HEK293 [11] = test: EBV LMP1 TES2 canonical NF-kB signalling blockers – cell-based, HEK293, luciferase, cherry-pick, dose response (AID 588343); assay type: functional; conditions: Homo sapiens
[12] = NIH-3T3 fibroblast cytotoxicity, dose response, cytotoxicity control, cell-based, fluorescence, Alamar Blue, secondary assay (AID 2327); assay type: functional;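 also: NIH-3T3 mouse fibroblasts cultured with fluconazole at 8 µg/mL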
[13] = Trypanosoma cruzi growth suppression in host cells – NIH3T3 host cells, beta-gal luminescence, confirmation (AID 2044); assay type: functional, cell-based;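 also: intracellular parasites grown in NIH/3T3 mouse fibroblasts as host cells; luminescent beta-galactosidase reporter signal from transgenic T. cruzi replicating inside host cells; inhibitors lower the luminescence signal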
[14] = target: UDP-galactopyranose mutase (Mycobacterium tuberculosis, UniProt P9WIQ1); test: Inhibitors of Mycobacterium tuberculosis UDP-galactopyranose mutase (UGM) enzyme Measured in Biochemical System Using Plate Reader - 2105-02_Inhibitor_Dose_CherryPick_Activity. [Related pubchem assays (depositor defined):AID504439]
Sequence of UDP-galactopyranose mutase (P9WIQ1 whole entry): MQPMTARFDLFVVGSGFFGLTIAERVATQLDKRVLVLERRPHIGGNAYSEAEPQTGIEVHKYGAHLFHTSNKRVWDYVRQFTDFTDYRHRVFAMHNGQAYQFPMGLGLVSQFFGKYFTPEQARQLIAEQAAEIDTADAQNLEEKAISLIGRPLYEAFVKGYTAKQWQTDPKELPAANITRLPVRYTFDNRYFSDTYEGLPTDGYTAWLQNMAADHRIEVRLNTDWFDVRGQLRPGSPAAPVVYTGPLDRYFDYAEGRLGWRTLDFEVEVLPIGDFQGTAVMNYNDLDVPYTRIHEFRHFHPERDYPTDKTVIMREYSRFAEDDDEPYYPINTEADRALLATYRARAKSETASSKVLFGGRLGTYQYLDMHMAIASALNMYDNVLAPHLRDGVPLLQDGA

BJ [15] = test: BJ-TERT fibroblast viability loss – cell-based, RAS-independent, luminescence, dose response (AID 1933); assay type: functional; conditions: Homo sapiens
[16] = DRD fibroblast viability loss – cell-based, non-viral oncogenic, luminescence, dose response (AID 1934); assay type: functional; conditions: Homo sapiens
[17] = HEK-293T viability loss after treatment – luminescence, T-cell screen hits, cytotoxicity control for TCR NF-kB inhibitor project, dose response (AID 489026); assay type: functional, cell-based;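 also: cells exposed to compound about 14 hours before the viability readout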
BJ [18] = test: cells; assay type: functional, cell-based; conditions: Homo sapiens
BJ [19] = test: BJ-TERT-LT-ST fibroblast viability loss – cell-based, RAS-independent, luminescence, dose response (AID 1935); assay type: functional; conditions: Homo sapiens;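 also: BJ fibroblasts immortalized with TERT plus LT and ST oncogenes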
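For CC50 in this document: cells exposed to compound for 72 hours before luminescence readout.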

CCn1c(SCc2ccccc2Cl)nc2nc3c(cc2c1=O)CCCC3
IC50 (Phospholipase A2): 4.98 µM (active) | EC50 (HEK293 [1]): > 59.6 µM (inactive) | EC50 (HEK293 [2]): > 59.6 µM (inactive) | IC50 (Cysteine protease ATG4B): 12.5 µM (active)

O=C(CCl)N(c1ccc(Cl)cc1)c1c[nH]c2ccccc12
EC50 [3]: 8.46 µM (active) | EC50 [4]: < 6 µM (inconclusive) | EC50 [5]: 13.2 µM (active) | IC50 [6]: 15 µM (active) | EC50 [7]: 2.72 µM (active) | EC50 [8]: 15.5 µM (active) | EC50 (Protein RecA): 0.195 µM (active) | AC50 [9]: 2.46 µM (active) | CC50 [10]: 0.86 µM (active) | AC50 (HEK293 [11]): 12.5 µM (active) | EC50 [12]: 4.07 µM (inconclusive) | EC50 [13]: 0.412 µM (active)

Cc1nn(C)cc1N1C(=O)c2cccc3c(N)ccc(c23)C1=O
AC50 [14]: 1.91 µM (active)

O=C(Cc1ccc(-c2ccccc2)cc1)NCc1ccccc1
EC50 (BJ [15]): 0.385 µM (active) | EC50 [16]: 0.489 µM (active) | IC50 [17]: > 80 µM (inactive) | EC50 (BJ [18]): 13.6 µM (inconclusive) | EC50 (BJ [19]): 0.279 µM (inconclusive)
